Data reported in the supplement of paper PMC11208160.

Assay: recombinant UMI read abundance after kanamycin selection (control-corrected) (log10(CPM+1)); higher = more efficient recombination; extreme values may be limits of the assay; sequences stand for … in AGTGCAGAGAAAATCGGCCAGTTTTCTCTGCCTGCAGTCCGCATGCCGTGGGACCCCTTGGGTTCTAACCTGTTGCCTAGATTTATGCAGCGGACTGCCTTTCTCCCAAAGTGATAAACCGG…AGGTTGGTTTCACT; site = the 11-nt donor
Outline: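 Under IPTG (0.07 mM) plus kanamycin, or without selection, Escherichia coli carrying a UMI-tagged donor and donor-binding-loop pair library and a target plasmid for the IS621 bridge recombinase were plated in two replicates. Recombinant UMIs were PCR-amplified across the donor–target junction and sequenced. Counts were converted to CPM, averaged over replicates, scaled by control-derived factors and reported as log10(CPM+1).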
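Note: IS621 bridge recombinase in Escherichia coli cells against a fixed T5 target plasmid.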

| Sequence | recombinant UMI read abundance (log10) |
| --- | --- |
| CTAGTATCATGGACCGGTTTTCCCGGTAATCCGTATTTGAC (site CTAGTATCTTT) | 2.1 |
| CTAGTATCATGGACCGGTTTTCCCGGTAATCCGTATTTGAC (site CTAGTCACTGT) | 0 |
| CTAGTATCATGGACCGGTTTTCCCGGTAATCCGTATTTGAC (site CTAGTCTCTCT) | 0.0131 |
| CTAGTATCATGGACCGGTTTTCCCGGTAATCCGTATTTGAC (site CTAGTCTCTGA) | 0 |
| CTAGTATCATGGACCGGTTTTCCCGGTAATCCGTATTTGAC (site CTAGTCTCTGT) | 1.18 |
| CTAGTATCATGGACCGGTTTTCCCGGTAATCCGTATTTGAC (site CTAGTGCCTGT) | 0 |
| CTAGTATCATGGACCGGTTTTCCCGGTAATCCGTATTTGAC (site CTAGTGTCTAT) | 0.00843 |
| CTAGTATCATGGACCGGTTTTCCCGGTAATCCGTATTTGAC (site CTAGTGTCTGC) | 0 |
| CTAGTATCATGGACCGGTTTTCCCGGTAATCCGTATTTGAC (site CTAGTGTCTGT) | 2.01 |
| CTAGTATCATGGACCGGTTTTCCCGGTAATCCGTATTTGAC (site CTAGTTGCTGT) | 0 |
| CTAGTATCATGGACCGGTTTTCCCGGTAATCCGTATTTGAC (site CTAGTTTCTGG) | 0 |
| CTAGTATCATGGACCGGTTTTCCCGGTAATCCGTATTTGAC (site CTAGTTTCTGT) | 0 |
| CTAGTATCATGGACCGGTTTTCCCGGTAATCCGTATTTGAC (site CTAGTTTCTTT) | 0 |
| CTAGTATCATGGACCGGTTTTCCCGGTAATCCGTATTTGAC (site CTATGATCTGT) | 0 |
| CTAGTATCATGGACCGGTTTTCCCGGTAATCCGTATTTGAC (site CTATTACCTGT) | 0 |
| CTAGTATCATGGACCGGTTTTCCCGGTAATCCGTATTTGAC (site CTATTATCTAT) | 0 |
| CTAGTATCATGGACCGGTTTTCCCGGTAATCCGTATTTGAC (site CTATTATCTGC) | 0 |
| CTAGTATCATGGACCGGTTTTCCCGGTAATCCGTATTTGAC (site CTATTATCTGT) | 0.701 |
| CTAGTATCATGGACCGGTTTTCCCGGTAATCCGTATTTGAC (site CTATTGTCTGT) | 0 |
| CTAGTATCATGGACCGGTTTTCCCGGTAATCCGTATTTGAC (site CTCATATCTGT) | 0.632 |
| CTAGTATCATGGACCGGTTTTCCCGGTAATCCGTATTTGAC (site CTCGAATCTGT) | 0 |
| CTAGTATCATGGACCGGTTTTCCCGGTAATCCGTATTTGAC (site CTCGTAACTGT) | 0 |
| CTAGTATCATGGACCGGTTTTCCCGGTAATCCGTATTTGAC (site CTCGTATCTCT) | 0.007 |
| CTAGTATCATGGACCGGTTTTCCCGGTAATCCGTATTTGAC (site CTCGTATCTGA) | 0 |
| CTAGTATCATGGACCGGTTTTCCCGGTAATCCGTATTTGAC (site CTCGTATCTGT) | 0.0723 |

| Sequence | recombinant UMI read abundance (log10) |
| --- | --- |
| CTAGTATCATGGACCGGTTTTCCCGGTAATCCGTATTTGAC (site CTCGTCTCTGT) | 0 |
| CTAGTATCATGGACCGGTTTTCCCGGTAATCCGTATTTGAC (site CTGCTATCTGT) | 0 |
| CTAGTATCATGGACCGGTTTTCCCGGTAATCCGTATTTGAC (site CTGGCATCTGT) | 0 |
| CTAGTATCATGGACCGGTTTTCCCGGTAATCCGTATTTGAC (site CTGGTAGCTGT) | 0 |
| CTAGTATCATGGACCGGTTTTCCCGGTAATCCGTATTTGAC (site CTGGTATCTGG) | 0 |
| CTAGTATCATGGACCGGTTTTCCCGGTAATCCGTATTTGAC (site CTGGTATCTGT) | 0 |
| CTAGTATCATGGACCGGTTTTCCCGGTAATCCGTATTTGAC (site CTGGTATCTTT) | 0.0145 |
| CTAGTATCATGGACCGGTTTTCCCGGTAATCCGTATTTGAC (site CTGGTTTCTGT) | 0 |
| CTAGTATCATGGACCGGTTTTCCCGGTAATCCGTATTTGAC (site CTTGGATCTGT) | 0 |
| CTAGTATCATGGACCGGTTTTCCCGGTAATCCGTATTTGAC (site CTTGTACCTGT) | 0.169 |
| CTAGTATCATGGACCGGTTTTCCCGGTAATCCGTATTTGAC (site CTTGTATCTAT) | 0 |
| CTAGTATCATGGACCGGTTTTCCCGGTAATCCGTATTTGAC (site CTTGTATCTGC) | 0 |
| CTAGTATCATGGACCGGTTTTCCCGGTAATCCGTATTTGAC (site CTTGTATCTGT) | 1.57 |
| CTAGTATCATGGACCGGTTTTCCCGGTAATCCGTATTTGAC (site CTTGTGTCTGT) | 0 |
| CTAGTATCATGGACCGGTTTTCCCGGTAATCCGTATTTGAC (site CTTTTATCTGT) | 1 |
| CTAGTATCATGGACCGGTTTTCCCGGTAATCCGTATTTGAC (site GGAGTATCTGT) | 2.07 |
| CTAGTATCATGGACCGGTTTTCCCGGTAATCCGTATTTGAC (site GTAGGATCTGT) | 0.00691 |
| CTAGTATCATGGACCGGTTTTCCCGGTAATCCGTATTTGAC (site GTAGTACCTGT) | 0 |
| CTAGTATCATGGACCGGTTTTCCCGGTAATCCGTATTTGAC (site GTAGTATCTAT) | 0 |
| CTAGTATCATGGACCGGTTTTCCCGGTAATCCGTATTTGAC (site GTAGTATCTGC) | 0 |
| CTAGTATCATGGACCGGTTTTCCCGGTAATCCGTATTTGAC (site GTAGTATCTGT) | 0 |
| CTAGTATCATGGACCGGTTTTCCCGGTAATCCGTATTTGAC (site GTAGTGTCTGT) | 0.0419 |
| CTAGTATCATGGACCGGTTTTCCCGGTAATCCGTATTTGAC (site GTATTATCTGT) | 0 |
| CTAGTATCATGGACCGGTTTTCCCGGTAATCCGTATTTGAC (site GTTGTATCTGT) | 0.0569 |
| CTAGTATCATGGACCGGTTTTCCCGGTAATCCGTATTTGAC (site TAAGTATCTGT) | 0 |

| Sequence | recombinant UMI read abundance (log10) |
| --- | --- |
| CTAGTATCATGGACCGGTTTTCCCGGTAATCCGTATTTGAC (site TTAATATCTGT) | 0 |
| CTAGTATCATGGACCGGTTTTCCCGGTAATCCGTATTTGAC (site TTAGAATCTGT) | 0 |
| CTAGTATCATGGACCGGTTTTCCCGGTAATCCGTATTTGAC (site TTAGTAACTGT) | 0 |
| CTAGTATCATGGACCGGTTTTCCCGGTAATCCGTATTTGAC (site TTAGTATCTCT) | 0 |
| CTAGTATCATGGACCGGTTTTCCCGGTAATCCGTATTTGAC (site TTAGTATCTGA) | 0 |
| CTAGTATCATGGACCGGTTTTCCCGGTAATCCGTATTTGAC (site TTAGTATCTGT) | 1.71 |
| CTAGTATCATGGACCGGTTTTCCCGGTAATCCGTATTTGAC (site TTAGTCTCTGT) | 0 |
| CTAGTATCATGGACCGGTTTTCCCGGTAATCCGTATTTGAC (site TTCGTATCTGT) | 0 |
| CTAGTATCATGGACCGGTTTTCCCGGTAATCCGTATTTGAT (site CTAGTATCTAT) | 2.21 |
| CTAGTATCATGGACCGGTTTTCCCGGTAATCCGTATTTGAT (site CTAGTATCTCT) | 0.557 |
| CTAGTATCATGGACCGGTTTTCCCGGTAATCCGTATTTGAT (site CTAGTATCTGT) | 1.31 |
| CTAGTATCATGGACCGGTTTTCCCGGTAATCCGTATTTGAT (site CTAGTATCTTT) | 1.07 |
| CTAGTATCATGGACCGGTTTTCCCGGTAATCCGTATTTGCA (site CTAGTATCTGT) | 0.00642 |
| CTAGTATCATGGACCGGTTTTCCCGGTAATCCGTATTTGCA (site CTAGTATCTTG) | 2.72 |
| CTAGTCCCATGGACCGGTTTTCCCGGTAATCCGTATTTGCT (site CTAGTCCCTAG) | 1.79 |
| CTAGTCCCATGGACCGGTTTTCCCGGTAATCCGTATTTGGA (site CTAGTCCCTTC) | 0.281 |
| CTAGTCGCATGGACCGGTTTTCCCGGTAATCCGTATTTGCG (site ATAGTCGCTCG) | 0.00637 |
| CTAGTCGCATGGACCGGTTTTCCCGGTAATCCGTATTTGCG (site CTAGTCGCTCG) | 0.966 |
| CTAGTCGCATGGACCGGTTTTCCCGGTAATCCGTATTTGCG (site GTAGTCGCTCG) | 0 |
| CTAGTCGCATGGACCGGTTTTCCCGGTAATCCGTATTTGCG (site TTAGTCGCTCG) | 0.0191 |
| CTAGTCTCATGGACCGGTTTTCCCGGTAATCCGTATTTGAC (site CTAGTATCTGT) | 0.627 |
| CTAGTCTCATGGACCGGTTTTCCCGGTAATCCGTATTTGAC (site CTAGTCTCTGT) | 2.93 |
| CTAGTCTCATGGACCGGTTTTCCCGGTAATCCGTATTTGAC (site CTAGTGTCTGT) | 0 |
| CTAGTCTCATGGACCGGTTTTCCCGGTAATCCGTATTTGAC (site CTAGTTTCTGT) | 0.799 |
| CTAGTGTCATGGACCGGTTTTCCCGGTAATCCGTATTTGAC (site CTAGTATCTGT) | 1.23 |
